Experiments:
A2780 = test: CellTiter-Glo cell viability assay, A2780; format: cell-based; settings: Ovarian; for IC50: Homo sapiens, A2780, 72 hours
Method: (§1) Cell Viability Assay—Cell viability was measured by the CellTiter-Glo® cell viability assay Promega (Madison, Wis.). The CellTiter-Glo® Luminescent Cell Viability Assay is a homogeneous method to determine the number of viable cells in culture based on quantitation of the ATP present, which signals the presence of metabolically active cells. Following treatment, CellTiter-Glo® is added to treatment wells and incubated at 37° C. luminescence values were measured at using a Molecular Devices Spectramax microplate reader.
(§2) Single Agent Studies—Cells were grown to 70% confluency, trypsinized, counted, and seeded in 96 well flat-bottom plates at a final concentration of 2.5×10^3-5×10^3 cells/well (Day 0). Cells were allowed to incubate in growth media for 24 hours. Treatment with the test agents began on Day 1 and continued for 72 hours. At the 72-hour time point, treatment-containing media was removed. Viable cell numbers are quantified by the CellTiter-Glo® cell viability assay as described above. Experiments were run with triplicate concentrations to determine growth inhibitory activity. Results from these studies were used to calculate an IC50 value (concentration of drug that inhibits cell growth by 50 percent of control) for each compound.
(§3) Data Collection—For single agent and combination studies, data from each experiment was collected and expressed as % Cell Growth using the following calculation: % Cell Growth=(ftest/fvehicle)×100
(§4) Where ftest is the luminescence of the tested sample, and fvehicle is the luminescence of the vehicle in which the drug is dissolved. Dose response graphs and IC50 values were generated using Prism 6 software (GraphPad).

SUDHL-10 = test: CellTiter-Glo cell viability assay, SUDHL-10; format: cell-based; settings: Lymphoma; for IC50: Homo sapiens, SU-DHL10, SUDHL-10, 72 hours
Method: as §1, §2, §3, §4

% PPB, mouse = format: in vitro ADME; settings: plasma; mouse (m)
MDA468 = test: CellTiter-Glo cell viability assay, MDA468; format: cell-based; settings: Breast; for IC50: MDA468, 72 hours
Method: as §1, §2, §3, §4

JEKO = test: CellTiter-Glo cell viability assay, JEKO; format: cell-based; settings: Lymphoma; for IC50: 72 hours
Method: as §1, §2, §3, §4

MV411 = test: CellTiter-Glo cell viability assay, MV411; format: cell-based; settings: AML; for IC50: Homo sapiens, MV4-11, MV411, 72 hours
Method: as §1, §2, §3, §4

A549 = test: CellTiter-Glo cell viability assay, A549; format: cell-based; settings: NSCLC; for IC50: Homo sapiens, A549, 72 hours
Method: as §1, §2, §3, §4

[1] = system: MM1.S human myeloma cells; test: Human MM1.S xenograft model, combination screening with pomalidomide/dexamethasone; format: in vivo, mice; settings: 100 mg/kg daily for 19 days oral plus pomalidomide 10 mg/kg / dexamethasone 0.3 mg/kg; compared to ID #2 or ID #3 combinations
Method: Group 3 (G3) was treated with Compound ID #1 at 100 mg/kg daily for 19 days. Group 4 (G4) was treated with Compound ID #2 at 100 mg/kg daily for 19 days. Group 5 (G5) was treated with Compound ID #3 at 100 mg/kg daily for 19 days. […] Vehicle and Compound ID #1, Compound ID #2 and Compound ID #3 were administered orally via oral gavage. Body weights and tumor measurements were collected twice weekly.

[2] = system: MM1.S human myeloma cells; test: Human MM1.S xenograft model, single agent screening; format: in vivo, mice; settings: 100 mg/kg daily for 19 days, oral gavage; compared to Compound ID #2 or Compound ID #3
Method: In vivo efficacy studies of Compound ID #1, Compound ID #2, and Compound ID #3 were tested in human MM1.S xenograft model as shown in FIG. 1. […] Group 2 (G2) was treated with Compound ID #1 at 100 mg/kg daily for 19 days. Group 3 (G3) was treated with Compound ID #2 at 100 mg/kg daily for 19 days. Group 4 (G4) was treated with Compound ID #3 at 100 mg/kg daily for 19 days. Vehicle and Compound ID #1, Compound ID #2 and Compound ID #3 were administered orally via oral gavage. Body weights and tumor measurements were collected twice weekly.

H1650 = test: CellTiter-Glo cell viability assay, H1650; format: cell-based; settings: NSCLC; for IC50: Homo sapiens, NCI-H1650, H1650, 72 hours
Method: as §1, §2, §3, §4

Mino = test: CellTiter-Glo cell viability assay, Mino; format: cell-based; settings: Lymphoma; for IC50: Homo sapiens, 72 hours
Method: as §1, §2, §3, §4

OCI-LY3 = test: CellTiter-Glo cell viability assay, OCI-LY3; format: cell-based; settings: Lymphoma; for IC50: Homo sapiens, OCI-LY3, 72 hours
Method: as §1, §2, §3, §4

RS4-11 = test: CellTiter-Glo cell viability assay, RS4-11; format: cell-based; settings: ALL; for IC50: Homo sapiens, RS4-11, 72 hours
Method: as §1, §2, §3, §4

In the case of `O=C(NO)c1ccc(Nc2nc3ccccc3n2CC2CCCCC2)cc1` [ID #1, 4-((1-(cyclohexylmethyl)-1H-benzo[d]imidazol-2-yl)amino)-N-hydroxybenzamide], the IC50 (A2780) is reported as 2030 nM, the “Improvement ID #1 over ID #3 Percent” value (A2780; A2780) is reported as 63.62% and the “Improvement ID #1 over ID #3 fold” value (A2780; A2780) is reported as 2.75 fold. For the same compound, the IC50 (SUDHL-10) was 550 nM, the “Improvement ID #1 over ID #3 Percent” value (SUDHL-10; SUDHL-10) was 63.58% and the “Improvement ID #1 over ID #3 fold” value (SUDHL-10; SUDHL-10) was 2.75 fold. The fraction unbound (% PPB, mouse) was 0.0045, the “Improvement ID #1 over ID #3 Percent” value (MDA468; MDA468) was 58.63% and the “Improvement ID #1 over ID #3 fold” value (MDA468; MDA468) was 2.42 fold. For the same compound, the IC50 (MDA468) was 3860 nM, the “Improvement ID #1 over ID #3 Percent” value (JEKO) was 56.31% and the “Improvement ID #1 over ID #3 fold” value (JEKO) was 2.29 fold. The IC50 (JEKO) was 970 nM, the “Improvement ID #1 over ID #3 Percent” value (MV411; MV411) was 77.09% and the “Improvement ID #1 over ID #3 fold” value (MV411; MV411) was 4.37 fold. The IC50 (MV411) was 630 nM, the IC50 (A549) was 2290 nM and the “Improvement ID #1 over ID #3 Percent” value (A549; A549) was 77.10%. The “Improvement ID #1 over ID #3 fold” value (A549; A549) was 4.37 fold, the “anticancer activity (tumor volume) when combined with pomalidomide/dexamethasone” value [1] was “significantly superior anticancer activity” and the “anticancer activity (tumor volume)” value [2] was “significantly superior anticancer activity”. For the same compound, the IC50 (H1650) was 6610 nM, the “Improvement ID #1 over ID #3 Percent” value (H1650; H1650) was 63.68% and the “Improvement ID #1 over ID #3 fold” value (H1650; H1650) was 2.75 fold. The IC50 (Mino) was 1200 nM, the “Improvement ID #1 over ID #3 Percent” value (Mino) was 71.22% and the “Improvement ID #1 over ID #3 fold” value (Mino) was 3.48 fold. For the same compound, the IC50 (OCI-LY3) was 1050 nM, the “Improvement ID #1 over ID #3 Percent” value (OCI-LY3; OCI-LY3) was 54.15% and the “Improvement ID #1 over ID #3 fold” value (OCI-LY3; OCI-LY3) was 2.18 fold. For the same compound, the “Improvement ID #1 over ID #3 Percent” value (RS4-11; RS4-11) was 54.92%, the “Improvement ID #1 over ID #3 fold” value (RS4-11; RS4-11) was 2.22 fold and the IC50 (RS4-11) was 1100 nM.
In the case of `O=C(NO)c1ccc(Nc2nc3ccccc3n2C2CCCCCC2)cc1` [ID #3, 4-((1-cycloheptyl-1H-benzo[d]imidazol-2-yl)amino)-N-hydroxybenzamide], the IC50 (A2780) is reported as 5580 nM, the IC50 (SUDHL-10) is reported as 1510 nM and the fraction unbound (% PPB, mouse) is reported as 0.0052. The IC50 (MDA468) was 9330 nM, the IC50 (JEKO) was 2220 nM and the IC50 (MV411) was 2750 nM. For the same compound, the IC50 (A549) was 10000 nM, the IC50 (H1650) was 18200 nM and the IC50 (Mino) was 4170 nM. For the same compound, the IC50 (OCI-LY3) was 2290 nM and the IC50 (RS4-11) was 2440 nM.

From patent US11236052B2, “Aminobenzimidazole derivatives, treatments, and methods of inhibiting histone deacetylase” (TRANSLATIONAL DRUG DEVELOPMENT, LLC, priority 2017, dated 2022)
